The test system of assay [1] is allergic rhinitis model in mice. Description: Allergic rhinitis model in mice (OVA). Format: in vivo, BALB/C mice. To be noted: nasal drops twice a day, 7-day treatment; MDI-1233 10 mg/kg, MDI-1228 3 mg/kg, MDI-1288 3 mg/kg; fluticasone propionate positive control. As for the experimental part:
42-49 day-old BALB/C mice (Manufacturer: Liaoning Changsheng Biotechnology Co., Ltd., License Number: SCXK(therapeutic)2015-0001), both male and female, were reared under conventional diet, at a temperature of 20 to 26° C., and a humidity of 40% to 70%. Animal grouping and modeling: • 1. Blank control group (no treatment) • 2. Allergic rhinitis group (vehicle treatment: saline containing 0.2% Tween 80) • 3. Allergic rhinitis+compound MDI-1233: 1 mg/kg • 4. Allergic rhinitis+compound MDI-1233: 3 mg/kg • 5. Allergic rhinitis+compound MDI-1233: 10 mg/kg • 6. Allergic rhinitis+compound MDI-1228: 3 mg/kg • 7. Allergic rhinitis+compound MDI-1288: 3 mg/kg • 8. Allergic rhinitis+positive control group (Fluticasone propionate, GlaxoSmithKline, E88D
The preparation of an AR model in mice involved sensitizing and challenging BALB/c mice with ovalbumin (OVA) to simulate an acute symptoms caused by natural exposure to an allergen. The experimental animals were weighed and separated by gender. Sensitization was performed on days 1, 5, 9, and 12. From day 13, a daily challenge was carried out for 7 consecutive days. After the last challenge, behavior of the mice was observed and scored. The sensitization method involved intraperitoneal injection of an OVA (Sigma, A5503-1G) suspension in 50 μg/ml in which the OVA suspension was prepared by dissolving 500 μg of ovalbumin and 50 mg of AL(OH)3 (CAS 21645-51-2) into 10 ml of normal saline, pH 7.4, with 200 μl injected per mouse. […] On day 12, a single nasal challenge with 10% OVA was performed (PBS was used for the control group). Scoring was conducted according to the table below, using a superposition method to calculate the total score. A total score greater than 5 was considered as successful. Subsequent experiments were conducted after the modeling was deemed successful.
From day 13, compound administration and challenge were conducted. The compound administration method involved calculating the nasal drops volume according to the mouse's body weight and group requirements, and dissolving the compounds MDI-1233, MDI-1228, MDI-1288 into normal saline containing 0.2% Tween 80 at specific concentrations. The administration was given 30 minutes before the challenge, twice a day. The positive control treatment involved administering nasal drop once (10 μl per side) 30 minutes before OVA nasal stimulation, twice a day. Thirty minutes after the second drug administration, a 10% OVA challenge was conducted, and the amount of nasal discharge, sneezing, and nose scratching were observed and recorded within 30 minutes after each challenge and then scored. The control group was treated with normal saline nasal drops.
After the rhinitis modeling was completed and the scores were stable, mice of each group were anesthetized and sacrificed after a 20-day scoring. Samples were collected, and peripheral serum was obtained by collecting whole blood, and standing it at room temperature for 1 hour and then centrifuging it to collect the supernatant for ELISA detection; nasal mucosa was taken for HE staining (fixed with 10% formalin); and the supernatant of nasal lavage fluid was taken for ELISA detection.
(1) HE Staining: The tissue was rinsed with running water for several hours, dehydrated through a series of ethanol solutions (70%, 80%, 90%), and then treated with a mixture of pure alcohol and xylene for 15 minutes, followed by xylene I for 15 minutes and xylene I1 for 15 minutes (until transparent). The tissue was then placed in a mixture of xylene and paraffin at a volume ratio of 1:1 for 15 minutes, followed by immersion with paraffin I and paraffin II each for 50-60 minutes. The tissue was embedded in paraffin and sectioned, and the sections were spreaded, dried, dewaxed and hydrated in distilled water. […]

A further assay concerns the target TRKB (Homo sapiens (Human), UniProt Q16620). Description: Inhibitory activity on TRKB (ADP-Glo Kinase Assay).

TRKB, sequence (Q16620 32-822): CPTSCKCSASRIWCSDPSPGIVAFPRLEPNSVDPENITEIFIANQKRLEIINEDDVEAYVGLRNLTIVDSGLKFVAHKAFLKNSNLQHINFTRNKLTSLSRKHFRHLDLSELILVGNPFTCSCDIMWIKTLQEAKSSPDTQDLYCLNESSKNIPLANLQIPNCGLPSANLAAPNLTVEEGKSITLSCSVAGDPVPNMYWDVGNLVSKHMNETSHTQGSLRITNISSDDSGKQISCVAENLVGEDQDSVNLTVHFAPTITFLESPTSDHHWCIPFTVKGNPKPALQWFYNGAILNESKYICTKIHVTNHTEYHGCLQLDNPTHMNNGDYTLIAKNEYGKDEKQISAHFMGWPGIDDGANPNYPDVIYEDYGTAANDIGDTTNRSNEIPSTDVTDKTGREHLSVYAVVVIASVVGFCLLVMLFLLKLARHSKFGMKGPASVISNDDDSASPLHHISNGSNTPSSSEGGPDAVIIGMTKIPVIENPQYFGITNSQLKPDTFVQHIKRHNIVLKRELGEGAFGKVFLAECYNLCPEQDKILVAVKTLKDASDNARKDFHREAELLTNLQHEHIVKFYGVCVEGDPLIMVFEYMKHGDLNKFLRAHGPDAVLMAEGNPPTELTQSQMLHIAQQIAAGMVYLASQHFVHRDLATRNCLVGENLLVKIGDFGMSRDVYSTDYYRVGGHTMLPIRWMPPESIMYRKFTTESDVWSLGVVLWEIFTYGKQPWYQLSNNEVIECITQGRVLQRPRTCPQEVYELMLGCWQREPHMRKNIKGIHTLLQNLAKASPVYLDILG

For `CCc1cc(O)c(F)cc1-c1ccc2c(-c3nc4c([nH]3)CN(C(=O)N3CC[C@H](O)C3)C4)n[nH]c2c1` [MDI-1228, (S)-(2-(6-(2-ethyl-5-fluoro-4-hydroxyphenyl)-1H-indazol-3-yl)-4,6-dihydropyrrolo[3,4-d]imidazol-5-(1H)-yl)(3-hydroxylpyrrolidin-1-yl)ketone], in assay [1], the Rhinitis behavioral scoring entry is given as “did not significantly inhibit the allergic response in male mice”. At TRKB, this compound had an IC50 of 1.77 nM.

With `CCc1cc(O)c(F)cc1-c1ccc2c(-c3nc4c([nH]3)CN(C(=O)NCC(O)CCl)C4)n[nH]c2c1` (stereo not shown) [MDI-1288], the Rhinitis behavioral scoring entry in assay [1] was “showed inhibitory effects on both male and female mouse rhinitis models”. Further, at TRKB, 1.04 nM corresponded to half-maximal inhibition (IC50).
